Columns and labels:
Type in all cases: physicochemical
[1] = Solubility of 4-tert-butyl-4′-methoxydibenzoylmethane when mixed with esterification reaction product; conditions: mixed with esterification reaction product (Production Example 1)
[2] = Water-holding property test 1 (water taken up by sample/Vaseline mixture at 40° C.); conditions: sample 1 g + Vaseline 9 g, mass of water to mass of mixture, higher is better
Procedure: (1) Water-Holding Property Test 1
The water-holding property test of esterification reaction products is conducted with reference to the lanolin water retention value test in British Pharmacopoeia (BP) as follows:
A measurement sample (1 g) and Vaseline (9 g) are mixed and vigorously stirred (200 to 300 rpm) in a thermostat chamber at 40° C. while dropwise adding purified water thereto. The point when water is no longer being received is determined as the end-point and is expressed as a percentage of mass of water to mass of the mixture. A higher value means better water-holding properties of the sample.

[3] = Water-holding property test 2 (differential scanning calorimetry of sample:water 7:3); conditions: sample:water 7:3, DSC 2° C./min from −15° C. to 45° C.; no peak = good water-holding
Procedure: (2) Water-Holding Property Test 2
A measurement sample and water are mixed at a mass ratio of 7:3 and are vigorously stirred (500 rpm, 3 minutes) in a thermostatic chamber at 70° C. to obtain a water-holding substance. The obtained water-holding substance is analyzed with a differential scanning calorimeter (device name “DSC 6200”, manufactured by Seiko Instruments Inc.). That is, the temperature of the water-holding substance is raised at a rate of 2° C./min in the range from −15° C. to 45° C. to obtain a differential scanning calorimetry curve, and the curve is confirmed whether an endothermic peak due to water at around 0° C. is present or not. When this endothermic peak is not observed, the water-holding properties are judged to be good.

[4] = Water-retaining property test (mass loss after 24 hours at 40° C.); conditions: reduced mass after 24 hours at 40° C., lid off; lower is better
Procedure: (3) Water-Retaining Property Test
A measurement sample (1 g) and Vaseline (9 g) are mixed and vigorously stirred (500 rpm, 3 minutes) in a thermostat chamber at 40° C. while dropwise adding 10 g of purified water thereto (the ratio of purified water to the mixture of sample and Vaseline was 1:1). When the sample become smooth, 10 g of the sample is uniformly applied onto a Petri dish so as to have a thickness of 0.5 to 1.5 mm and then put in a thermostat chamber at 40° C. with the lid off. After 24 hours, the sample is taken out from the chamber. The mass after the still standing is measured, and the reduced mass after the standing is calculated and is expressed as a percentage to the mass of the applied sample. A lower value means better water-retaining properties of the sample.

[5] = Dispersibility test (titanium oxide, octyl palmitate; wetting point and fluid point); conditions: sample 4 g + titanium oxide 20 g, octyl palmitate added; for (4) Dispersibility Wetting point: lower is better
Procedure: A sample (4 g) and titanium oxide (20 g) are mixed, and then octyl palmitate (manufactured by The Nisshin OilliO Group, Ltd. under the trade name Salacos P-8) is gradually added thereto. The point when the mixture become uniform as a whole is determined as the wetting point, and the point when the mixture starts to flow by tilting the whole mixture is determined as the fluid point. The amounts of octyl palmitate added until to reach the respective points are measured and used as the wetting point value and the fluid point value.
A lower wetting point value or a smaller difference between the wetting point value and the fluid point value means higher pigment-dispersing properties of the sample.

[6] = Water resistant ability (waterproof-film-forming ability), contact angle before and after washing; conditions: film on glass plate, before and after washing with flowing tap water 25 mL/s, 1 minute; smaller is better
Procedure: (6) Water Resistant Ability (Waterproof-Film-Forming Ability)
A sample is dissolved in chloroform to prepare a sample solution containing 10% by mass of the sample. The prepared sample solution is applied onto a washed glass plate. Then, the solvent is removed to form a film, and one drop of distilled water is dropped onto the formed film. The contact angle between the film surface and the water droplet is measured. After the measurement, the film is washed with flowing tap water (25 mL/s, 1 minute). The water resistant ability is evaluated by comparing the contact angles before and after the washing. A smaller difference in the contact angle before and after the washing means better water resistant ability.

| solubility of 4-tert-butyl-4′-methoxydibenzoylmethane [1] | (1) Water-holding properties [2] [% by mass] | endothermic peak due to water at around 0° C. [3] | (3) Water-retaining properties [4] [% by mass] | (4) Dispersibility Fluid point [5] [% by mass] | (4) Dispersibility Wetting point [5] [% by mass] | Water resistant ability (difference in contact angle (°)) [6] [°] | Compound |
| --- | --- | --- | --- | --- | --- | --- | --- |
| improved |  |  |  |  |  |  | COc1ccc(C(=O)CC(=O)c2ccc(C(C)(C)C)cc2)cc1 [4-tert-butyl-4′-methoxydibenzoylmethane] |
|  | 320 | detected | 1.9 | 9 | 2 |  | CCCCCCC(O)CCCCCCCCCCC(=O)O[C@H]1CC[C@@]2(C)C(=CC[C@H]3[C@@H]4CC[C@H]([C@H](C)CCCC(C)C)[C@@]4(C)CC[C@@H]32)C1 (stereo partly shown) [Cholesteryl hydroxystearate, cholesteryl hydroxystearate] |
|  | 200 | detected | 3.0 | 22 | 3 | 47.4 | CC(C)CCCCCCCCCCCCCCCOC(=O)CC(O)C(=O)OCCCCCCCCCCCCCCCC(C)C (stereo not shown) [Diisostearyl malate, diisostearyl malate] |
|  |  |  |  |  |  | 21.0 | polyglyceryl triisostearate |
